# Laboratory results taken from patent publication US11384358B2, “Method of regulating gene expression in a cell” (President and Fellows of Harvard College, priority 2017, dated 2022).
# Legend:
# Format in all cases: cell-based
# [1] = system: TetR regulon paired with slpA-tetO variant 2; experiment: aTc induction of fluorescent reporter, TetR regulon (L. plantarum promoter) paired with slpA-tetO variant 2; conditions: L. rhamnosus GG; 0.3125-10 ng/mL aTc; early exponential, mid-exponential and stationary phase; FIG. 1
# Method: To evaluate the functionality of the aTc induction system described herein in lactic acid bacteria, the TetR regulon described herein is driven by a L. plantarum promoter paired with slpA-tetO variant 2 (current SEQ IDs 1 and 2), into L. rhamnosus GG via electroporation with a high copy plasmid. Sequence verified colonies, as well as colonies harboring a negative control plasmid with no fluorescence reporter, were then picked in triplicate, and used to inoculate liquid cultures that were grown overnight. These overnight cultures were then sub-cultured 1/100 into fresh media, in duplicate—one culture containing 10 ng/mL aTc, the other containing no inducing agent. The culture with inducing agent, was then serially diluted by 50%, 5 times (yielding cultures with 5, 2.5, 1.25, 0.625, and 0.3125 ng/mL of aTc, in addition to the original 10 ng/mL culture). These cultures were then grown to an optical density of 0.2 (to capture lag phase behavior), 0.6 (log phase), and 1.0 (stationary phase), as measured by an optical cell density meter. At each optical density, the fluorescence of all cultures and replicates were measured in absolute units in a fluorimeter. Relative fluorescence units were then computed as a fold change value over the measured fluorescence of the negative control cell cultures that were known to not express fluorescence protein.
# [2] = system: aTc-inducible expression cassette encoding J3-VHH secretion; experiment: aTc-induced secretion of HisTagged J3-VHH nanobody, protein gel of purified culture supernatant; conditions: L. gasseri with inducible cassette (SEQ ID NO: 2); 500 ng/mL aTc added at optical density 0.4; FIG. 17
# Source text: According to one aspect, an inducible expression system is used prevent expression during bacterial culture and clone isolation. According to one aspect, expression is controlled and kept off during bacterial culture and clone isolation to avoid or lower or reduce or inhibit secretion-induced toxicity. According to one aspect, the level of a HisTagged, anti-HIV (gp120) camelid nanobody (J3-VHH) purified from culture supernatant, when secretion of protein was driven by an inducible system (SEQ ID NO: 2) was compared to a system using an uncontrolled, constitutive slpA. Cells (in this case, L. gasseri) without an expression cassette (negative control with no protein expected), an aTc-inducible expression cassette encoding J3-VHH secretion, and an equivalent, but constitutive expression cassette, were grown in culture to an optical density of 0.4 (the start of the exponential growth phase, during which time cellular protein production capacity is maximal), and split into two equal volumes—500 ng/mL of aTc was added to one, while the other received no aTc (as an internal negative control to verify functional induction).
# [3] = system: L. jensenii; experiment: susceptibility of Lactobacillus strains to tetracycline (growth inhibition)
# Method: (§1) An expression system that is inducible by tetracycline in Lactobacilli is described as follows. […] A BLAST analysis of the TetR protein sequence as well as the TetA tetracycline efflux pump that drives resistance was performed, across all available Lactobacillus proteomes and potential homologs in L. lactis, and L. plantarum were identified, because they carry a transferrable plasmid harboring tetM and tetS genes.
# [4] = system: L. rhamnosus GG; experiment: as above
# Method: as §1
# [5] = system: L. gasseri; experiment: as above
# [6] = system: L. crispatus; experiment: as above
# [7] = system: L. rhamnosus GG; experiment: promoter variants driving fluorescent reporter in plasmid with no TetR, L. rhamnosus GG
# Method: FIG. 11 depicts minimum free energy mRNA structural folding predictions. Each of these variants was then tested in a plasmid with no TetR (meaning the inserted promoters are not repressed, and should be constitutively active), driving a fluorescent reporter. […] Subsequently, this test was replicated in L. rhamnosus GG. […] Therefore, only variant 2 was selected for testing in the presence of TetR. […] See McCracken et al. J Bacteriol 181(20):6569-6572 (1999).
# [8] = system: L. rhamnosus GG; experiment: leakage and induction of aTc-inducible slpA promoter variant (FIG. 16)
# Source text: An exemplary aTc-inducible slpA promoter variant is provided in SEQ ID NO:15 which includes the alterations above resulting in a combined, maximally repressive variant. In one embodiment, a promoter sequence has at least 85% homology, at least 90% homology, at least 95% homology, at least 97% homology, at least 98% homology or at least 99% homology to SEQ ID NO:15. All of the described alterations work in concert to achieve an inducible system that has essentially undetectable levels of leakage in all phases of growth.
# [9] = system: TetR regulon paired with slpA-tetO variant 2; experiment: aTc induction of fluorescent reporter in L. gasseri; conditions: similar experimental conditions, FIG. 15
# [10] = relative expression strength of promoters by fluorescence (FIG. 12)
molecule,measurement,setting,value
"Cc1c2c(c(O)c3c(O)cccc13)C(=O)[C@]1(O)C(O)=C(C(N)=O)C(=O)[C@@H](N(C)C)[C@@H]1C2 [aTc, anhydrous tetracycline]",repression and expression of a fluorescent protein in the absence and presence of aTc,[1],reliable repression and expression of a fluorescent protein
same,secretion of J3-VHH protein into the supernatant,[2],secreted any protein into the supernatant
CN(C)[C@@H]1C(O)=C(C(N)=O)C(=O)[C@@]2(O)C(O)=C3C(=O)c4c(O)cccc4[C@@](C)(O)[C@H]3C[C@@H]12 [tetracycline],tetracycline concentration at which growth is inhibited,[3],≤ 2 mg/mL
same,tetracycline concentration at which growth is inhibited,[4],≤ 2 mg/mL
same,tetracycline concentration at which growth is inhibited,[5],≤ 2 mg/mL
same,tetracycline concentration at which growth is inhibited,[6],≤ 2 mg/mL
Variant 2: slpA promoter with two tetO boxes after the transcriptional start site (nucleic acid) DNA: TGCTTGTGGGGGTAAGCGGTAGGTGAAATATTACAAATAGTATTTTTCGGTCATTTTAACTTGCTATTTCTTGAAGAGGTTAGTACAATATGAATCGTGGCCCTATCAGTGATAGAGATCAGGCGCCCTATCAGTGATAGAGATGATTCTTCAGCAAGACTACTACCTCATGAGAGTTATAGACTCATGGATCTTGCTTTGAAGGGTTTTGTACATTATAGGCTCCTATCACATGCTGAACCTATGGCCTATTACATTTTTTTATATTTCAAGGAGGAAAAGACCAC,expression versus wild-type promoter,[7],3 fold-less than the wild-type promoter
"SEQ ID NO:15: aTc-inducible slpA promoter variant combining all alterations, maximally repressive (nucleic acid) DNA: TGCTTGTGGGGGTAAGCGGTAGGTGAAATATTACAAATAGTATTTTTCGGTCATTTTAACTTGCTATTTCTTGAAGAGGTTAGTACAATATGAATCGTGGTCCCTATCAGTGATAGAGATTGACATCCCTATCAGTGATAGAGATATTCTTCAGCAAGACTACTACCTCATGAGAGTTATAGACTCATGGATCTTGCTTTGAAGGGTTTTGTACATTATAGGCTCCTATCACATGCTGAACCTATGGCCTATTACATTTTTTTATATTTCAAGGAGGAAAAGACCAC",reduction in maximum inducible expression,[8]; FIG. 16,~10 ×
same,basal expression in the absence of aTc,"[8]; stationary phase for 0, 2.5, 7.5 and 17.5 hours",no basal expression was detected
TetR-ClpC-slpA: hybrid regulon: L. fermentum BR11 ClpC promoter fused to slpA 5' untranslated region driving TetR (nucleic acid) DNA: CTTAAAATATAGTCATAGAATTAGGGCGTCGGTTTTAAAAGTGTGGTAAAATAATGGTCAAGATTAGTGGTAAGTAATAGGACGTGCTTCAGGCGTGTTGCCTGTACGCATGCTGATTCTTCAGCAAGACTACTACCTCATGAGAGTTATAGACTCATGGTATAGGCTCCTATCACATGCTGAACCTATGGCCTATTACATTTTTTTATATTTCAAGGAGGAAAAGACCACATGATGTCACGCTTGGATAAATCAAAAGTTATTAATTCAGCATTGGAATTGTTGAATGAAGTTGGCATTGAAGGCTTGACCACCCGCAAATTGGCACAAAAATTGGGCGTTGAACAACCAACCTTGTATTGGCATGTTAAAAATAAACGCGCATTGTTGGATGCATTGGCAATTGAAATGTTGGATCGCCATCATACCCATTTTTGCCCATTGGAAGGCGAATCATGGCAAGATTTTTTGCGCAATAATGCAAAATCATTTCGCTGCGCATTGTTGTCACATCGCGATGGCGCAAAAGTTCATTTGGGCACCCGCCCAACCGAAAAACAATATGAAACCTTGGAAAATCAATTGGCATTTTTGTGCCAACAAGGCTTTTCATTGGAAAATGCATTGTATGCATTGTCAGCAGTTGGCCATTTTACCTTGGGCTGCGTTTTGGAAGATCAAGAACATCAAGTTGCAAAAGAAGAACGCGAAACCCCAACCACCGATTCAATGCCACCATTGTTGCGCCAAGCAATTGAATTGTTTGATCATCAAGGCGCAGAACCAGCATTTTTGTTTGGCTTGGAATTGATTATTTGCGGCTTGGAAAAACAATTGAAATGCGAATCAGGCTCATAA,function of hybrid promoter driving TetR,[9],functional
"promoter for the ribosomal RNA 3-a from L. plantarum: L. plantarum ribosomal RNA promoter 3-a, used to drive TetR (SEQ ID NO: 1) (nucleic acid) DNA: TTATAAAAAGATGTTGACAGCTTGTTCTGATGATGATAAACTTTAATAGTTGCGAGAGAAAGAGGAGAAATACTAGATGATGTCTAGATTAGATAAAAGTAAAGTGATTAACAGCGCATTAGAGCTGCTTAATGAGGTCGGAATCGAAGGTTTAACAACCCGTAAACTCGCCCAGAAGCTAGGTGTAGAGCAGCCTACATTGTATTGGCATGTAAAAAATAAGCGGGCTTTGCTCGACGCCTTAGCCATTGAGATGTTAGATAGGCACCATACTCACTTTTGCCCTTTAGAAGGGGAAAGCTGGCAAGATTTTTTACGTAATAACGCTAAAAGTTTTAGATGTGCTTTACTAAGTCATCGCGATGGAGCAAAAGTACATTTAGGTACACGGCCTACAGAAAAACAGTATGAAACTCTCGAAAATCAATTAGCCTTTTTATGCCAACAAGGTTTTTCACTAGAGAATGCATTATATGCACTCAGCGCTGTGGGGCATTTTACTTTAGGTTGCGTATTGGAAGATCAAGAGCATCAAGTCGCTAAAGAAGAAAGGGAAACACCTACTACTGATAGTATGCCGCCATTATTACGACAAGCTATCGAATTATTTGATCACCAAGGTGCAGAGCCAGCCTTCTTATTCGGCCTTGAATTGATCATATGCGGATTAGAAAAACAACTTAAATGTGAAAGTGGGTCTTAA",expression strength relative to slpA,[10],5 fold weaker than that of slpA
